# Assay results reported in patent publication US9650395B2, “Antibacterial compounds and methods for use” (PTC Therapeutics, Inc., priority 2011, dated 2017).
# Where two headings read alike, the source gives them in different places.
# What was measured:
# [1] = tested on: Gram-positive Staphylococcus aureus (S. aureus) 29213; experiment: Antibacterial activity, microbroth dilution MIC, S. aureus 29213; assay type: cell-based; conditions: Staphylococcus aureus; S. aureus 29213, microbroth dilution; read-out: MIC, 29213
# [2] = tested on: super sensitive Gram-negative Escherichia coli (E. coli) BAS849; experiment: Antibacterial activity, microbroth dilution MIC, E. coli BAS849; assay type: cell-based; conditions: Escherichia coli, read-out: MIC, BAS849
# [3] = tested on: control Gram-negative E. coli 25922 strain; experiment: Antibacterial activity, microbroth dilution MIC, E. coli 25922; assay type: cell-based, Escherichia coli; conditions: Escherichia coli; E. coli 25922, microbroth dilution; read-out: MIC, 25922
# [4] = tested on: quinolone resistant E. coli LZ3111; experiment: Antibacterial activity, MIC, quinolone resistant E. coli LZ3111; assay type: cell-based, Escherichia coli; conditions: Escherichia coli, read-out: MIC, LZ3111
# Source text: The antibacterial activity from a microbroth dilution method may be presented as the minimum inhibitory concentration (MIC in […]). The MIC value is the lowest concentration of a drug which prevents macroscopically visible bacterial growth under test conditions.
# Mutations in these regions are known to confer a high level resistance to the quinolone class of antibiotics.
# [5] = E. coli BAS849, microbroth dilution
Compound,MIC [1] [µg/mL],"MIC [2, 5] [µg/mL]",MIC [3] [µg/mL],MIC [4] [µg/mL],MIC [2] [µg/mL]
"CCc1cc(C(=O)O)c(=O)[nH]c1-c1ccc(N2CCC(N(C)C)C2)cc1F (centres unmarked) [Cpd 221, 6-{4-[3-(dimethylamino)pyrrolidin-1-yl]-2-fluorophenyl}-5-ethyl-2-oxo-1,2-dihydropyridine-3-carboxylic acid]",12.5 to 150,1 to 3.5,3.5 to 12.5,12.5 to 150,–
"CCc1cc(C(=O)O)c(=O)[nH]c1-c1ccc(N2C[C@H]3CC[C@@H](N(C)C)[C@H]3C2)cc1.Cl [Cpd 198, 6-{4-[(3aR,4R,6aS)-4-(dimethylamino)hexahydrocyclopenta[c]pyrrol-2(1H)-yl]phenyl}-5-ethyl-2-oxo-1,2-dihydropyridine-3-carboxylic acid hydrochloride]",12.5 to 150,< 1,3.5 to 12.5,12.5 to 150,–
"CCc1cc(C(=O)O)c(=O)[nH]c1-c1ccc(N2CCC(C)(O)C2)cc1 (centres unmarked) [Cpd 233, 5-ethyl-6-[4-(3-hydroxy-3-methylpyrrolidin-1-yl)phenyl]-2-oxo-1,2-dihydropyridine-3-carboxylic acid]",12.5 to 150,< 1,3.5 to 12.5,12.5 to 150,–
"CCc1cc(C(=O)O)c(=O)[nH]c1-c1ccc(N2CCC(CNCc3ccncc3)C2)cc1 (centres unmarked) [Cpd 242, 5-ethyl-2-oxo-6-[4-(3-{[(pyridin-4-ylmethyl)amino]methyl}pyrrolidin-1-yl)phenyl]-1,2-dihydropyridine-3-carboxylic acid]",12.5 to 150,< 1,1 to 3.5,12.5 to 150,–
"CCc1cc(C(=O)O)c(=O)[nH]c1-c1ccc(N2C[C@H]3C[C@@H](N)[C@H]3C2)cc1 [Cpd 211, 6-{4-[(1S,5R,6R)-6-amino-3-azabicyclo[3.2.0]hept-3-yl]phenyl}-5-ethyl-2-oxo-1,2-dihydropyridine-3-carboxylic acid]",12.5 to 150,< 1,3.5 to 12.5,12.5 to 150,–
"CCc1c(-c2ccc(N3C[C@H]4C[C@@H](N(Cc5ccccc5)Cc5ccccc5)C[C@H]4C3)cc2)[nH]c(=O)c(C(=O)O)c1O [Cpd 251, 6-{4-[(3aR,5r,6aS)-5-(dibenzylamino)hexahydrocyclopenta[c]pyrrol-2(1H)-yl]phenyl}-5-ethyl-4-hydroxy-2-oxo-1,2-dihydropyridine-3-carboxylic acid]",12.5 to 150,12.5 to 150,12.5 to 150,12.5 to 150,–
"CCc1cc(C(=O)O)c(=O)[nH]c1-c1ccc(CN2CCC(N(C)C)C2)n1C (centres unmarked) [Cpd 353, 6-(5-((3-(dimethylamino)pyrrolidin-1-yl)methyl)-1-methyl-1H-pyrrol-2-yl)-5-ethyl-2-oxo-1,2-dihydropyridine-3-carboxylic acid]",12.5 to 150,12.5 to 150,12.5 to 150,12.5 to 150,–
"CCc1c(-c2ccc(N3CCCCC3)cc2OC)[nH]c(=O)c(C(=O)O)c1O [Cpd 49, 5-ethyl-4-hydroxy-6-[2-methoxy-4-(piperidin-1-yl)phenyl]-2-oxo-1,2-dihydropyridine-3-carboxylic acid]",3.5 to 12.5,3.5 to 12.5,12.5 to 150,12.5 to 150,–
"CCc1c(-c2ccc(N3CCC(n4ccnn4)C3)cc2)[nH]c(=O)c(C(=O)O)c1O (centres unmarked) [Cpd 287, 5-ethyl-4-hydroxy-2-oxo-6-{4-[3-(1H-1,2,3-triazol-1-yl)pyrrolidin-1-yl]phenyl}-1,2-dihydropyridine-3-carboxylic acid]",3.5 to 12.5,< 1,1 to 3.5,12.5 to 150,–
"CCc1c(-c2ccc(N3CCC(OCc4ccccc4)CC3)cc2)[nH]c(=O)c(C(=O)O)c1O [Cpd 281, 6-{4-[4-(benzyloxy)piperidin-1-yl]phenyl}-5-ethyl-4-hydroxy-2-oxo-1,2-dihydropyridine-3-carboxylic acid]",12.5 to 150,3.5 to 12.5,12.5 to 150,12.5 to 150,–
"CCc1cc(C(=O)O)c(=O)[nH]c1-c1ccc(N2C[C@H]3CC[C@H](N=[N+]=[N-])[C@H]3C2)cc1.O=C(O)C(F)(F)F [Cpd 245, 6-{4-[(3aR,4S,6aS)-4-azidohexahydrocyclopenta[c]pyrrol-2(1H)-yl]phenyl}-5-ethyl-2-oxo-1,2-dihydropyridine-3-carboxylic acid trifluoroacetate]",3.5 to 12.5,–,3.5 to 12.5,12.5 to 150,< 1
"CCc1c(-c2ccc(N3CCC(N)CC3)cc2)[nH]c(=O)c(C(=O)O)c1O [Cpd 284, 6-[4-(4-aminopiperidin-1-yl)phenyl]-5-ethyl-4-hydroxy-2-oxo-1,2-dihydropyridine-3-carboxylic acid]",12.5 to 150,3.5 to 12.5,12.5 to 150,12.5 to 150,–
"CCc1cc(C(=O)O)c(=O)[nH]c1-c1ccc(N2CCC(CNCc3ccc(Cl)cc3)C2)cc1 (centres unmarked) [Cpd 237, 6-[4-(3-{[(4-chlorobenzyl)amino]methyl}pyrrolidin-1-yl)phenyl]-5-ethyl-2-oxo-1,2-dihydropyridine-3-carboxylic acid]",3.5 to 12.5,< 1,< 1,12.5 to 150,–
"CCc1c(-c2ccc(N3CCC(N(Cc4ccccc4)Cc4ccccc4)CC3)cc2)[nH]c(=O)c(C(=O)O)c1O [Cpd 283, 6-{4-[4-(dibenzylamino)piperidin-1-yl]phenyl}-5-ethyl-4-hydroxy-2-oxo-1,2-dihydropyridine-3-carboxylic acid]",12.5 to 150,3.5 to 12.5,12.5 to 150,12.5 to 150,–
"CCc1cc(C(=O)O)c(=O)[nH]c1-c1ccc(N2CCC(N3CCCC3)C2)cc1 (centres unmarked) [Cpd 175, 6-[4-(1,3′-bipyrrolidin-1′-yl)phenyl]-5-ethyl-2-oxo-1,2-dihydropyridine-3-carboxylic acid]",12.5 to 150,< 1,1 to 3.5,12.5 to 150,–
"CCc1cc(C(=O)O)c(=O)[nH]c1-c1ccc(OC)cc1F [Cpd 30, 5-ethyl-6-(2-fluoro-4-methoxyphenyl)-2-oxo-1,2-dihydropyridine-3-carboxylic acid]",12.5 to 150,1 to 3.5,12.5 to 150,12.5 to 150,–
"CCc1cc(C(=O)O)c(=O)[nH]c1-c1ccc(NCCN(C)C)cc1 [Cpd 159, 6-(4-{[2-(dimethylamino)ethyl]amino}phenyl)-5-ethyl-2-oxo-1,2-dihydropyridine-3-carboxylic acid]",12.5 to 150,1 to 3.5,12.5 to 150,12.5 to 150,–
"CCc1c(-c2ccc(N3CCCCC3)cc2F)[nH]c(=O)c(C(=O)O)c1O [Cpd 44, 5-ethyl-6-[2-fluoro-4-(piperidin-1-yl)phenyl]-4-hydroxy-2-oxo-1,2-dihydropyridine-3-carboxylic acid]",1 to 3.5,1 to 3.5,12.5 to 150,12.5 to 150,–
"CC(C)c1cc(C(=O)O)c(=O)[nH]c1-c1ccc(N(C)CCN(C)C)cc1 [Cpd 165, 6-(4-{[2-(dimethylamino)ethyl](methyl)amino}phenyl)-2-oxo-5-(propan-2-yl)-1,2-dihydropyridine-3-carboxylic acid]",12.5 to 150,1 to 3.5,12.5 to 150,12.5 to 150,–
"CCc1cc(C(=O)O)c(=O)[nH]c1-c1ccc(CN2CCCCC2)n1C [Cpd 352, 5-ethyl-6-(1-methyl-5-(piperidin-1-ylmethyl)-1H-pyrrol-2-yl)-2-oxo-1,2-dihydropyridine-3-carboxylic acid]",12.5 to 150,12.5 to 150,12.5 to 150,12.5 to 150,–
